Measured values from US10308650B2, “Pesticidally active tetracyclic derivatives with sulfur containing substituents” (Syngenta Participations AG, priority 2014, dated 2019).
Where two headings read alike, the source gives them in different places.

Tests used:
Format in all cases: in vivo
[1] = system: Plutella xylostella (Diamond Back Moth); experiment: Activity against Plutella xylostella; details: 120 h, read-out: effect in at least one of the two categories (mortality or growth inhibition); for percent effect (mortality or growth inhibition) at 200 ppm: application rate of 200 ppm, artificial diet, L2 larvae, 5 days after infestation
Description: Example B8: Activity Against Plutella xylostella (Diamond Back Moth)
24-well microtiter plates with artificial diet were treated with aqueous test solutions prepared from 10,000 ppm DMSO stock solutions by pipetting. After drying, the plates were infested with L2 larvae (10 to 15 per well). The samples were assessed for mortality and growth inhibition in comparison to untreated samples 5 days after infestation.

[2] = system: Diabrotica balteata (Corn Root Worm); experiment: Activity against Diabrotica balteata; details: 96 h, read-out: effect in at least one of the two categories (mortality or growth inhibition); for percent effect (mortality or growth inhibition) at 200 ppm: application rate of 200 ppm, maize sprouts, L2 larvae, 4 days after infestation
Description: Example B2: Activity Against Diabrotica balteata (Corn Root Worm)
Maize sprouts placed onto an agar layer in 24-well microtiter plates were treated with aqueous test solutions prepared from 10,000 ppm DMSO stock solutions by spraying. After drying, the plates were infested with L2 larvae (6 to 10 per well). The samples were assessed for mortality and growth inhibition in comparison to untreated samples 4 days after infestation.

[3] = system: Bemisia tabaci (Cotton White Fly); experiment: Activity against Bemisia tabaci: feeding/contact activity; details: foliar, 144 h, application rate of 200 ppm, cotton leaf discs, adult white flies, 6 days after incubation
Description: Example B1: Activity Against Bemisia tabaci (Cotton White Fly): Feeding/Contact Activity
Cotton leaf discs were placed on agar in 24-well microtiter plates and sprayed with aqueous test solutions prepared from 10,000 ppm DMSO stock solutions. After drying the leaf discs were infested with adult white flies. The samples were checked for mortality 6 days after incubation.

[4] = system: Myzus persicae (Green Peach Aphid); experiment: Activity against Myzus persicae: feeding/contact activity; details: foliar, 144 h
Description: Example B5: Activity Against Myzus persicae (Green Peach Aphid): Feeding/Contact Activity
Sunflower leaf discs were placed onto agar in a 24-well microtiter plate and sprayed with aqueous test solutions prepared from 10,000 ppm DMSO stock solutions. After drying, the leaf discs were infested with an aphid population of mixed ages. The samples were assessed for mortality 6 days after infestation.

[5] = system: Spodoptera littoralis (Egyptian Cotton Leaf Worm); experiment: Activity against Spodoptera littoralis (cotton leaf discs, spray); details: foliar, 72 h, read-out: control (mortality, anti-feeding effect, growth inhibition)
Description: Example B9: Activity Against Spodoptera littoralis (Egyptian Cotton Leaf Worm)
Cotton leaf discs were placed onto agar in 24-well microtiter plates and sprayed with aqueous test solutions prepared from 10,000 ppm DMSO stock solutions. After drying the leaf discs were infested with five L1 larvae. The samples were assessed for mortality, anti-feeding effect, and growth inhibition in comparison to untreated samples 3 days after infestation. Control of Spodoptera littoralis by a test sample is given when at least one of the categories mortality, anti-feedant effect, and growth inhibition is higher than the untreated sample.

[6] = system: Spodoptera littoralis (Egyptian Cotton Leaf Worm); experiment: Activity against Spodoptera littoralis (lettuce, uptake by the roots from agar); details: 144 h, read-out: effect in at least one of the three categories (mortality, anti-feeding, or growth inhibition)
Description: Example B10: Activity Against Spodoptera littoralis (Egyptian Cotton Leaf Worm)
Test compounds were applied by pipette from 10,000 ppm DMSO stock solutions into 24-well plates and mixed with agar. Lettuce seeds were placed onto the agar and the multi well plate was closed by another plate which contained also agar. After 7 days the compound was absorbed by the roots and the lettuce grew into the lid plate. The lettuce leaves were then cut off into the lid plate. Spodoptera eggs were pipetted through a plastic stencil onto a humid gel blotting paper and the lid plate was closed with it. The samples were assessed for mortality, anti-feedant effect and growth inhibition in comparison to untreated samples 6 days after infestation.

[7] = system: Euschistus heros (Neotropical Brown Stink Bug); experiment: Activity against Euschistus heros; details: 120 h, read-out: effect in at least one of the two categories (mortality or growth inhibition); for percent effect (mortality or growth inhibition) at 200 ppm: application rate of 200 ppm, soybean leaves, N2 nymphs, 5 days after infestation; for percent control (mortality or growth inhibition) at 200 ppm: in Glycine max
Description: Example B3: Activity Against Euschistus heros (Neotropical Brown Stink Bug)
Soybean leaves on agar in 24-well microtiter plates were sprayed with aqueous test solutions prepared from 10,000 ppm DMSO stock solutions. After drying the leaves were infested with N2 nymphs. The samples were assessed for mortality and growth inhibition in comparison to untreated samples 5 days after infestation.

[8] = system: Aedes aegypti (Yellow Fever Mosquito); experiment: Activity against Aedes aegypti; details: 200 ppm in ethanol, dry deposit in 12 well plates, adult females, after 48 h and/or 24 h
Description: Example B13: Activity Against Aedes aegypti (Yellow Fever Mosquito)
Test solutions, at an application rate of 200 ppm in ethanol, were applied to 12 well tissue culture plates. Once the deposits were dry, five, two to five day old adult female Aedes aegypti were added to each well, and sustained with a 10% sucrose solution in a cotton wool plug. Assessment of knockdown was made one hour after introduction, and mortality was assessed at 24 and 48 hours after introduction.

[9] = system: Myzus persicae (Green Peach Aphid); experiment: Activity against Myzus persicae: systemic activity; details: 144 h
Description: Example B6: Activity Against Myzus persicae (Green Peach Aphid). Systemic Activity
Roots of pea seedlings infested with an aphid population of mixed ages were placed directly into aqueous test solutions prepared from 10,000 DMSO stock solutions. The samples were assessed for mortality 6 days after placing seedlings into test solutions.

[10] = system: Myzus persicae (Green Peach Aphid); experiment: Activity against Myzus persicae: intrinsic activity; details: 120 h
Description: Example B7: Activity Against Myzus persicae (Green Peach Aphid). Intrinsic Activity
Test compounds prepared from 10,000 ppm DMSO stock solutions were applied by pipette into 24-well microtiter plates and mixed with sucrose solution. The plates were closed with a stretched Parafilm. A plastic stencil with 24 holes was placed onto the plate and infested pea seedlings were placed directly on the Parafilm. The infested plate was closed with a gel blotting paper and another plastic stencil and then turned upside down. The samples were assessed for mortality 5 days after infestation.

[11] = application rate of 200 ppm, sunflower leaf discs, aphid population of mixed ages, 6 days after infestation, read-out: mortality
[12] = application rate of 200 ppm, cotton leaf discs, L1 larvae, 3 days after infestation
[13] = test rate of 12 ppm, sucrose solution under Parafilm, 5 days after infestation, read-out: mortality

CCS(=O)(=O)c1cc2cc(C#N)ccc2nc1-c1nc2cc(C(F)(F)F)ncc2n1C [Compound A50, 3-ethylsulfonyl-2-[3-methyl-6-(trifluoromethyl)imidazo[4,5-c]pyridin-2-yl]quinoline-6-carbonitrile]
≥ 80%: percent effect (mortality or growth inhibition) at 200 ppm [1] | percent effect (mortality or growth inhibition) at 200 ppm [2] | mortality at 200 ppm [3] | mortality at 200 ppm [4, 11] | mortality at 200 ppm [5, 12] | percent effect (mortality, anti-feeding or growth inhibition) at 12.5 ppm ([6]; test rate of 12.5 ppm, lettuce grown on treated agar, Spodoptera eggs, 6 days after infestation) | percent effect (mortality or growth inhibition) at 200 ppm [7]

CCS(=O)(=O)c1cc2nc(C(F)(F)F)n(C)c2cc1-c1nc2cc(C(F)(F)F)ncc2n1C [Compound A8, 2-[6-ethylsulfonyl-3-methyl-2-(trifluoromethyl)benzimidazol-5-yl]-3-methyl-6-(trifluoromethyl)imidazo[4,5-c]pyridine]
≥ 80%: percent effect (mortality or growth inhibition) at 200 ppm [1] | percent effect (mortality or growth inhibition) at 200 ppm [2] | mortality at 200 ppm [3] | pest or weed control at 200 ppm [8] | mortality at 24 ppm ([9]; test rate of 24 ppm, roots of infested pea seedlings in test solution, 6 days, read-out: mortality) | mortality at 200 ppm [4, 11] | percent effect (mortality or growth inhibition) at 200 ppm [7]

CCS(=O)(=O)c1cc2cc(C(F)(F)C(F)(F)F)ccc2nc1-c1nc2cc(C(F)(F)F)ncc2n1C [Compound A52, 3-ethylsulfonyl-2-[3-methyl-6-(trifluoromethyl)imidazo[4,5-c]pyridin-2-yl]-6-(1,1,2,2,2-pentafluoroethyl)quinoline]
≥ 80%: percent effect (mortality or growth inhibition) at 200 ppm [1] | percent effect (mortality or growth inhibition) at 200 ppm [2] | pest or weed control at 200 ppm [8] | mortality at 200 ppm [5, 12] | percent effect (mortality or growth inhibition) at 200 ppm [7]

CCSc1cc2ccccc2cc1-c1nc2cc(C(F)(F)F)ncc2n1C [Compound A23, 2-(3-ethylsulfanyl-2-naphthyl)-3-methyl-6-(trifluoromethyl)imidazo[4,5-c]pyridine]
≥ 80%: percent effect (mortality or growth inhibition) at 200 ppm [1] | mortality at 12 ppm [10, 13] | percent effect (mortality or growth inhibition) at 200 ppm [2] | mortality at 200 ppm [4, 11] | percent effect (mortality or growth inhibition) at 200 ppm [7]

CCSc1cc2ccccc2nc1-c1nc2cc(C(F)(F)F)ncc2n1C [Compound A21, 3-ethylsulfanyl-2-[3-methyl-6-(trifluoromethyl)imidazo[4,5-c]pyridin-2-yl]quinolone]
≥ 80%: percent control (mortality or growth inhibition) at 200 ppm [1] | mortality at 12 ppm [10] | percent control (mortality or growth inhibition) at 200 ppm [2] | mortality at 200 ppm [4] | mortality at 200 ppm [5] | percent control (mortality or growth inhibition) at 200 ppm [7]

CCSc1cc2c(nc1-c1nc3cc(C(F)(F)F)ncc3n1C)CC(C)(C)O2 [Compound A58, 6-ethylsulfanyl-2,2-dimethyl-5-[3-methyl-6-(trifluoromethyl)imidazo[4,5-c]pyridin-2-yl]-3H-furo[3,2-b]pyridine]
≥ 80%: percent effect (mortality or growth inhibition) at 200 ppm [1] | mortality at 12 ppm [10, 13] | percent effect (mortality or growth inhibition) at 200 ppm [2] | mortality at 200 ppm [3] | mortality at 200 ppm [4, 11] | mortality at 200 ppm [5, 12] | percent effect (mortality or growth inhibition) at 200 ppm [7]

CCS(=O)(=O)c1cc2ccccc2cc1-c1nc2cc(C(F)(F)F)cnc2n1C [Compound A3, 2-(3-ethylsulfonyl-2-naphthyl)-3-methyl-6-(trifluoromethyl)imidazo[4,5-b]pyridine]
≥ 80%: percent effect (mortality or growth inhibition) at 200 ppm [1] | mortality at 12 ppm [10, 13] | percent effect (mortality or growth inhibition) at 200 ppm [2] | mortality at 200 ppm [4, 11] | mortality at 200 ppm [5, 12] | percent effect (mortality or growth inhibition) at 200 ppm [7]

CCSc1cc2c(cc1-c1nc3cc(C(F)(F)F)ncc3n1C)nc(C(F)(F)F)n2C [Compound A39, 2-[6-ethylsulfanyl-1-methyl-2-(trifluoromethyl)benzimidazol-5-yl]-3-methyl-6-(trifluoromethyl)imidazo[4,5-c]pyridine]
≥ 80%: percent effect (mortality or growth inhibition) at 200 ppm [1] | percent effect (mortality or growth inhibition) at 200 ppm [2] | pest or weed control at 200 ppm [8]

CCS(=O)(=O)c1cc2ccccc2nc1-c1nc2cc(C(F)(F)F)ncc2n1C [Compound A22, 3-ethylsulfonyl-2-[3-methyl-6-(trifluoromethyl)imidazo[4,5-c]pyridin-2-yl]quinolone]
≥ 80%: percent control (mortality or growth inhibition) at 200 ppm [1] | mortality at 12 ppm [10] | percent control (mortality or growth inhibition) at 200 ppm [2] | pest or weed control at 200 ppm [8] | mortality at 24 ppm [9] | mortality at 200 ppm [4] | mortality at 200 ppm [5] | percent control (mortality, anti-feedant effect or growth inhibition) at 12.5 ppm [6] | percent control (mortality or growth inhibition) at 200 ppm [7]
